Experiment: Ability of a test compound to regulate transcription of a Type I collagen gene using the expression level of a reporter gene (COL-Luc luciferase) as an index
Format: cell-based
Conditions: final concentration 1 μM; normal human fetal skin fibroblast transfected with COL-Luc; TGF-β, 40 hours; read-out: inhibition percentage (inhibitory effect on the ability of TGF-β to promote transcription of a Type I collagen gene)
Protocol: 1×10^8 cells of a normal human fetal skin fibroblast (Clontech, catalogue No. CC-2509) were cultured at 37° C. overnight under 5% CO2 atmosphere. After the cultured cells were washed with a sodium phosphate buffer (hereinafter, referred to as PBS) twice, 3 ml of PBS was added thereto and the cells were scraped away the wall of a vessel using a cell scraper (Nalgen, catalogue No. 179693). The scraped cells were collected by centrifugation (1,500 rpm, 4° C., 15 min), and these were suspended in 20 ml of PBS and centrifuged again. To the resulting precipitates were added 11 ml of Solution 2 and 4.8 μl of pronase of DNA Extraction Kit (Stratagene, catalogue No. 200600). After shaken at 60° C. for 1 hour, the resulting mixture was allowed to stand in ice for 10 minutes. Then, 4 ml of Solution 3 of the kit was added to the mixture. After mixed, the mixture was allowed to stand in ice for 5 minutes and then centrifuged (3,000 rpm, 4° C., 15 min) to recover a supernatant. To the recovered supernatant was added 2 μl of RNase per 1 ml of the supernatant and the mixture was allowed to stand at 37° C. for 15 minutes. To the mixture was added 2-fold volume of ethanol. After mixed, a white thread-like substance (genomic DNA) appeared and the substance was recovered. The recovered genomic DNA washed with 70% ethanol and then air-dried. The air-dried genomic DNA was dissolved in 500 μl of 10 mM Tris-HCl, 1 mM EDTA (pH 8.0) (hereinafter, referred to as TE).
The resulting genomic DNA solution (the amount equivalent to 1 μg of genomic DNA), each 1 μl (10 pmol/μl) of an oligonucleotide consisting of the nucleotide sequence represented by SEQ ID No:1 and an oligonucleotide consisting of the nucleotide sequence represented by SEQ ID No:2, 29 μL of distilled water, 5 μl of the buffer attached to TaKaRa LA Taq (TAKARA SHUZO, catalogue No. RR002A), 5 μL of a Mg^2+ solution, 5 μL of a dNTP mixture and 0.5 μl of TaKaRa LA Taq (TAKARA SHUZO, catalogue No. RR002A) were mixed. After the resulting mixed solution was incubated at 94° C. for 5 minutes, the mixed solution was subjected to 30 cycles, in which one cycle consists of incubation at 94° C. for 1 minute, at 60° C. for 1 minute and then at 72° C. for 1 minute. The mixed solution was electrophoresed on a 2% agarose gel to recover about 0.5 kb of a DNA. The recovered DNA was treated with phenol/chloroform and then precipitated with ethanol to recover the DNA. The resulting DNA was dissolved in ultrapure water. To this solution were added 2.5 μl of NheI and 2.5 μl of HindIII, and then incubated at 37° C. for 3 hours. Then, the solution was electrophoresed on a 2% agarose gel to recover about 3.5 kb of a DNA. The recovered DNA was precipitated with ethanol to recover again the DNA (hereinafter, referred to as the collagen promoter DNA).
On the other hand, the vector pGL3 (Promega, catalogue No. E1751) having the nucleotide sequence encoding firefly luciferase was digested with NheI and HindIII, and then subjected to agarose gel electrophoresis as described above to recover about 5 kb of a DNA. The recovered DNA was precipitated with ethanol to recover the DNA again. To the recovered DNA were added 44 μl of distilled water, 5 μl of Buffer attached to Alkaline Phosphatase (TAKARA SHUZO, catalogue No. 2120A) and 1 μl of Alkaline Phosphatase (TAKARA SHUZO, catalogue No. 2120A). The mixed solution was incubated at 65° C. for 30 minutes. Then, the mixed solution was treated with phenol/chloroform twice, and precipitated with ethanol to recover the DNA (hereinafter referred to as the Luc vector DNA). Then, after about 20 ng of the collagen promoter DNA and about 20 ng of the Luc vector DNA were mixed, the same amount of a DNA Ligation kit Ver2 enzyme solution was added and this was incubated overnight at 16° C. To the mixed solution was added Escherichia coli 5Hdα (TOYOBO, catalogue No. DNA-903), this was allowed to stand in ice for 30 minutes, and then incubated at 42° C. for 45 seconds. […]

Compound	inhibition at 1 µM [%]
COc1cc(C)oc(=O)c1C(=O)C=Cc1cccc(OCC#N)c1 [(15a), 4-methoxy-3-[3-[3-(cyanomethoxy)phenyl]-1-oxo-2-propenyl]-6-methyl-2H-pyran-2-one]	≥ 70
COCCOC(=O)Nc1cccc(C=CC(=O)c2c(OC)cc(C)oc2=O)c1 [(25a), 4-methoxy-3-[3-[3-[(2-methoxyethoxy)carbonylamino]phenyl]-1-oxo-2-propenyl]-6-methyl-2H-pyran-2-one]	≥ 70
COCC(=O)Nc1cccc(C=CC(=O)c2c(OC)cc(C)oc2=O)c1 [(22a), 4-methoxy-3-[3-[3-(methoxyacetylamino)phenyl]-1-oxo-2-propenyl]-6-methyl-2H-pyran-2-one]	≥ 70
COC(=O)CNC(=O)c1cccc(C=CC(=O)c2c(N3CCCCC3)cc(C)oc2=O)c1 [(16b), 4-piperidino-3-[3-[3-[[(methoxycarbonylmethyl)amino]carbonyl]phenyl]-1-oxo-2-propenyl]-6-methyl-2H-pyran-2-one]	≥ 70
COc1cc(C)oc(=O)c1C(=O)C=Cc1cccc(C=CC#N)c1 [(2a), 4-methoxy-3-[3-[3-(2-cyanoethenyl)phenyl]-1-oxo-2-propenyl]-6-methyl-2H-pyran-2-one]	≥ 70
C#CCOc1ccc(C=CC(=O)c2c(OC)cc(C)oc2=O)cc1 [(10a), 4-methoxy-3-[3-(4-propargyloxyphenyl)-1-oxo-2-propenyl]-6-methyl-2H-pyran-2-one]	≥ 70
COCCOC(=O)Nc1cccc(C=CC(=O)c2c(O)cc(C)oc2=O)c1 [(24a), 4-hydroxy-3-[3-[3-[(2-methoxyethoxy)carbonylamino]phenyl]-1-oxo-2-propenyl]-6-methyl-2H-pyran-2-one]	≥ 70
COCCOC(=O)Nc1cccc(C=CC(=O)c2c(OC)c3ccccc3oc2=O)c1 [(25d), 4-methoxy-3-[3-[3-[(2-methoxyethoxy)carbonylamino]phenyl]-1-oxo-2-propenyl]-2H-1-benzopyran-2-one]	≥ 70
C#CCOc1cccc(C=CC(=O)c2c(OCC=C)cc(C)oc2=O)c1 [(2b), 4-allyloxy-3-[3-(3-propargyloxyphenyl)-1-oxo-2-propenyl]-6-methyl-2H-pyran-2-one]	≥ 70
C#CCNc1cc(C)oc(=O)c1C(=O)C=Cc1cccc(C=CC#N)c1 [(20b), 4-propargylamino-3-[3-[3-(2-cyanoethenyl)phenyl]-1-oxo-2-propenyl]-6-methyl-2H-pyran-2-one]	≥ 70
COCCOC(=O)Nc1cccc(C=CC(=O)c2c(O)c3ccccc3oc2=O)c1 [(24d), 4-hydroxy-3-[3-[3-[(2-methoxyethoxy)carbonylamino]phenyl]-1-oxo-2-propenyl]-2H-1-benzopyran-2-one]	≥ 70
COCCOC(=O)Nc1cccc(C=CC(=O)c2c(N3CCCCC3)c3ccccc3oc2=O)c1 [(18e), 4-piperidino-3-[3-[3-[(2-methoxyethoxy)carbonylamino]phenyl]-1-oxo-2-propenyl]-2H-1-benzopyran-2-one]	≥ 70
N#CCOc1cccc(C=CC(=O)c2c(O)c3ccccc3oc2=O)c1 [(14d), 4-hydroxy-3-[3-[3-(cyanomethoxy)phenyl]-1-oxo-2-propenyl]-2H-1-benzopyran-2-one]	≥ 70
COCCNC(=O)c1ccc(C=CC(=O)c2c(O)cc(C)oc2=O)cc1 [(36a), 4-hydroxy-3-[3-[4-[(2-methoxyethyl)aminocarbonyl]phenyl]-1-oxo-2-propenyl]-6-methyl-2H-pyran-2-one]	≥ 70
CSCCOc1cccc(C=CC(=O)c2c(N3CCCCC3)cc(C)oc2=O)c1 [(14b), 4-piperidino-3-[3-[3-(2-methylthioethoxy)phenyl]-1-oxo-2-propenyl]-6-methyl-2H-pyran-2-one]	≥ 70
COCC(=O)Nc1cccc(C=CC(=O)c2c(N3CCCCC3)c3ccccc3oc2=O)c1 [(17e), 4-piperidino-3-[3-[3-(methoxyacetylamino)phenyl]-1-oxo-2-propenyl]-2H-1-benzopyran-2-one]	≥ 70
C=CCOc1cccc(C=CC(=O)c2c(OCC=C)cc(C)oc2=O)c1 [(1b), 4-allyloxy-3-[3-(3-allyloxyphenyl)-1-oxo-2-propenyl]-6-methyl-2H-pyran-2-one]	≥ 70
COCC(=O)Nc1cccc(C=CC(=O)c2c(OC)c3ccccc3oc2=O)c1 [Compound (22d), 4-methoxy-3-[3-[3-(methoxyacetylamino)phenyl]-1-oxo-2-propenyl]-2H-1-benzopyran-2-one]	≥ 70
C=CCOc1cccc(C=CC(=O)c2c(OC)cc(C)oc2=O)c1 [(5a), 4-methoxy-3-[3-(3-allyloxyphenyl)-1-oxo-2-propenyl]-6-methyl-2H-pyran-2-one]	≥ 70
C#CCOc1cccc(C=CC(=O)c2c(O)cc(C)oc2=O)c1 [(7a), 4-hydroxy-3-[3-(3-propargyloxyphenyl)-1-oxo-2-propenyl]-6-methyl-2H-pyran-2-one]	≥ 70
COc1c(C(=O)C=Cc2cccc(OCC#N)c2)c(=O)oc2ccccc12 [(15d), 4-methoxy-3-[3-[3-(cyanomethoxy)phenyl]-1-oxo-2-propenyl]-2H-1-benzopyran-2-one]	≥ 70
Cc1cc(O)c(C(=O)C=Cc2ccc(C(=O)NCCO)cc2)c(=O)o1 [(32d), 4-hydroxy-3-[3-[4-[(2-hydroxyethyl)aminocarbonyl]phenyl]-1-oxo-2-propenyl]-6-methyl-2H-pyran-2-one]	≥ 70

Source: patent publication US7691883B2, “Cinnamoyl compound and use of the same” (Sumitomo Chemical Company, Limited, priority 2003, dated 2010)
